The source of these data is patent US9540343B2 (Gilead Sciences, Inc., priority 2011, dated 2017).

Data set [1] relates to HIV-IIIb. Description: Test A: Antiviral assay in MT4 cells. Particulars: Human immunodeficiency virus 1, IIIB, MT4, 120 h, read-out: % inhibition at 2 μM, percent inhibition of virus-induced cell killing, from dose response curve at 2 uM drug; MT-4 cells infected with HIV-IIIb, 5 days, CellTiter-Glo. Format: cell-based, HIV-1. (In general: ATP-based viability assays read luminescence as a measure of living cells.)

Data set [2] can be described thus: in vitro. Particulars: human, uninfected MT-4 cells, CC50 (nM), same protocol as Test A, CellTiter-Glo. The essentials:
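Cytoprotection read-out: CellTiter-Glo chemiluminescence after 5 days at 37 °C of HIV-IIIb-infected MT-4 cells (m.o.i. 0.003) with compound in 10-point 3-fold dilutions, quadruplicate, 10% FBS. Cytotoxicity (CC50) measured identically without virus.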

Each structure is given as a SMILES string. Bounds are passed on as bounds.

For the compound `Cc1ccc2c(ccn2CC(=O)N[C@@H](Cc2cc(F)cc(F)c2)c2ncccc2-c2ccc(F)c(C(N)=O)c2)c1` [Example 547, (S)-5-(2-(2-(3,5-difluorophenyl)-1-(2-(5-methyl-1H-indol-1-yl)acetamido)ethyl)pyridin-3-yl)-2-fluorobenzamide], the inhibition (in general, the drop in the measured response relative to a control, in per cent) at 2 µM in data set [1] stood at 45%. Further, the CC50 (commonly the concentration that lowers cell viability or growth by half) at 5 days in data set [2] turned out to be 13300 nM.

Consider `O=C1Cc2cc(-c3cccnc3[C@H](Cc3cc(F)cc(F)c3)NC(=O)Cn3nc(C(F)F)c4c3C(F)(F)CCC4(F)F)ccc2N1` [Example 548D, (S)-2-(3-(difluoromethyl)-4,4,7,7-tetrafluoro-4,5,6,7-tetrahydro-1H-indazol-1-yl)-N-(2-(3,5-difluorophenyl)-1-(3-(2-oxoindolin-5-yl)pyridin-2-yl)ethyl)acetamide], for which the inhibition at 2 µM in data set [1] came out at 54%. In data set [2], this compound yielded a CC50 at 5 days of 10100 nM.

Regarding `NCc1ccc2c(CC(=O)N[C@@H](Cc3cc(F)cc(F)c3)c3ncccc3-c3ccc(Cl)cc3)c[nH]c2c1` [Example 549, (S)-2-(6-(aminomethyl)-1H-indol-3-yl)-N-(1-(3-(4-chlorophenyl)pyridin-2-yl)-2-(3,5-difluorophenyl)ethyl)acetamide], the inhibition at 2 µM in data set [1] came out at 38%. This compound also gave a CC50 at 5 days in data set [2] of 10200 nM.

Turning to `NC(=O)c1cc(-c2cccnc2[C@H](Cc2cc(F)cc(F)c2)NC(=O)Cn2ncc3c(Cl)cc(Cl)cc32)ccc1F` [Example 550, (S)-5-(2-(1-(2-(4,6-dichloro-1H-indazol-1-yl)acetamido)-2-(3,5-difluorophenyl)ethyl)pyridin-3-yl)-2-fluorobenzamide], the inhibition at 2 µM in data set [1] is 1%. The same compound showed a CC50 at 5 days in data set [2] of 17000 nM.

On to `NC(=O)c1cc(-c2cccnc2[C@H](Cc2cc(F)cc(F)c2)NC(=O)Cn2nc(C(F)(F)F)c3c2C(=O)CC3(F)F)ccc1F` [Example 551, (S)-5-(2-(1-(2-(4,4-difluoro-6-oxo-3-(trifluoromethyl)-5,6-dihydrocyclopenta[c]pyrazol-1(4H)-yl)acetamido)-2-(3,5-difluorophenyl)ethyl)pyridin-3-yl)-2-fluorobenzamide], for which the inhibition at 2 µM in data set [1] came out at 0%. In addition, the CC50 at 5 days in data set [2] is greater than 53200 nM.

For `C=Cc1c(C(F)F)nn(CC(=O)N[C@@H](Cc2cc(F)cc(F)c2)c2ncccc2-c2ccc(F)c(C(N)=O)c2)c1C(F)F` [Example 553, (S)-5-(2-(1-(2-(3,5-bis(difluoromethyl)-4-vinyl-1H-pyrazol-1-yl)acetamido)-2-(3,5-difluorophenyl)ethyl)pyridin-3-yl)-2-fluorobenzamide], the inhibition at 2 µM in data set [1] came to 11%. Besides, the CC50 at 5 days in data set [2] is 23800 nM.

`NC(=O)c1cc(-c2cccnc2[C@H](Cc2cc(F)cc(F)c2)NC(=O)Cn2nc(C(F)F)c(Br)c2C(F)F)ccc1F` [Example 555C, (S)-5-(2-(1-(2-(4-bromo-3,5-bis(difluoromethyl)-1H-pyrazol-1-yl)acetamido)-2-(3,5-difluorophenyl)ethyl)pyridin-3-yl)-2-fluorobenzamide]: the inhibition at 2 µM in data set [1] came out at 14%. The same compound displayed a CC50 at 5 days in data set [2] of 25500 nM.

Consider `NCc1ccc2[nH]cc(CC(=O)N[C@@H](Cc3cc(F)cc(F)c3)c3ncccc3-c3cccc(C(N)=O)c3)c2c1` [Example 556, (S)-3-(2-(1-(2-(5-(aminomethyl)-1H-indol-3-yl)acetamido)-2-(3,5-difluorophenyl)ethyl)pyridin-3-yl)benzamide], for which the inhibition at 2 µM in data set [1] came to 83%. The compound also displayed a CC50 at 5 days in data set [2] of 47800 nM.

Consider `CC(C)(C)OC(=O)NCc1ccc2[nH]cc(CC(=O)N[C@@H](Cc3cc(F)cc(F)c3)c3ncccc3-c3ccc(Cl)cc3)c2c1` [Example 557, (S)-tert-butyl (3-(2-(1-(3-(4-chlorophenyl)pyridin-2-yl)-2-(3,5-difluorophenyl)ethylamino)-2-oxoethyl)-1H-indol-5-yl)methylcarbamate], for which the inhibition at 2 µM in data set [1] stood at 73%. In data set [2], this compound gave a CC50 at 5 days of 7860 nM.

As to `O=C(Cn1nc(C(F)F)c2c1C(F)(F)CCC2(F)F)N[C@@H](Cc1cc(F)cc(F)c1)c1ncccc1-c1ccc2cc[nH]c(=O)c2c1` [Example 559D, (S)-2-(3-(difluoromethyl)-4,4,7,7-tetrafluoro-4,5,6,7-tetrahydro-1H-indazol-1-yl)-N-(2-(3,5-difluorophenyl)-1-(3-(1-oxo-1,2-dihydroisoquinolin-7-yl)pyridin-2-yl)ethyl)acetamide], the inhibition at 2 µM in data set [1] turned out to be 96%. The compound further showed a CC50 at 5 days in data set [2] of 23100 nM.

`NC(=O)c1cccc(-c2cccnc2[C@H](Cc2cc(F)cc(F)c2)NC(=O)Cc2c[nH]c3ccc(N)cc23)c1` [Example 560, (S)-3-(2-(1-(2-(5-amino-1H-indol-3-yl)acetamido)-2-(3,5-difluorophenyl)ethyl)pyridin-3-yl)benzamide]: the inhibition at 2 µM in data set [1] amounted to 112%. This compound also had a CC50 at 5 days in data set [2] greater than 53000 nM.

Consider `NC(=O)c1cc(-c2cccnc2[C@H](Cc2cc(F)cc(F)c2)NC(=O)Cn2nc(C(F)(F)F)c3c2C(=O)C2CC32)ccc1F` (stereo partly drawn) [Example 561B, 5-(2-((1S)-2-(3,5-difluorophenyl)-1-(2-(5-oxo-3-(trifluoromethyl)-3b,4,4a,5-tetrahydro-1H-cyclopropa[3,4]cyclopenta[1,2-c]pyrazol-1-yl)acetamido)ethyl)pyridin-3-yl)-2-fluorobenzamide], for which the inhibition at 2 µM in data set [1] is 8%. The compound also returned a half-maximal cytotoxic concentration (CC50) at 5 days in data set [2] of 29000 nM.

Turning to `NC(=O)c1cc(-c2cccnc2[C@H](Cc2cc(F)cc(F)c2)NC(=O)Cn2c3c(c4ccccc42)CCCC3)ccc1F` [Example 563, (S)-5-(2-(2-(3,5-difluorophenyl)-1-(2-(3,4-dihydro-1H-carbazol-9(2H)-yl)acetamido)ethyl)pyridin-3-yl)-2-fluorobenzamide], in data set [1], the inhibition at 2 µM turned out to be 62%. For the same compound, the CC50 at 5 days in data set [2] worked out at 27000 nM.

Consider `Cc1cc2ncn(CC(=O)N[C@@H](Cc3cc(F)cc(F)c3)c3ncccc3-c3ccc(F)c(C(N)=O)c3)c2cc1C` [Example 564, (S)-5-(2-(2-(3,5-difluorophenyl)-1-(2-(5,6-dimethyl-1H-benzo[d]imidazol-1-yl)acetamido)ethyl)pyridin-3-yl)-2-fluorobenzamide], for which the inhibition at 2 µM in data set [1] is 100%. In addition, the CC50 at 5 days in data set [2] came out at 10300 nM.

As to `NC(=O)c1cc(-c2cccnc2[C@H](Cc2cc(F)cc(F)c2)NC(=O)Cn2c(=O)n(C3=CCCCC3)c3ccccc32)ccc1F` [Example 567, (S)-5-(2-(1-(2-(3-cyclohexenyl-2-oxo-2,3-dihydro-1H-benzo[d]imidazol-1-yl)acetamido)-2-(3,5-difluorophenyl)ethyl)pyridin-3-yl)-2-fluorobenzamide], the inhibition at 2 µM in data set [1] came out at 11%. This compound returned a CC50 at 5 days in data set [2] of 15800 nM.

Take `NC(=O)c1cc(-c2cccnc2[C@H](Cc2cc(F)cc(F)c2)NC(=O)Cn2ccc3cc(F)c(Cl)cc32)ccc1F` [Example 568, (S)-5-(2-(1-(2-(6-chloro-5-fluoro-1H-indol-1-yl)acetamido)-2-(3,5-difluorophenyl)ethyl)pyridin-3-yl)-2-fluorobenzamide]: in data set [1], the inhibition at 2 µM was determined as 42%. This compound also returned a CC50 at 5 days in data set [2] of 11400 nM.

As to `NC(=O)c1cccc(-c2cccnc2[C@H](Cc2cc(F)cc(F)c2)NC(=O)Cc2ccccn2)c1` [Example 569, (S)-3-(2-(2-(3,5-difluorophenyl)-1-(2-(pyridin-2-yl)acetamido)ethyl)pyridin-3-yl)benzamide], the inhibition at 2 µM in data set [1] came out at 11%. For the same compound, the CC50 at 5 days in data set [2] was greater than 53000 nM.
